Data published in PubChem BioAssay AID248 (DTP/NCI, 2004).
Inconclusive results and toxic doses are left out. Rule as the data show it: active = T/C of 150% or more; inactive = T/C below 125%.

Test system: L1210 leukemia ip in BDF1 mice, survival T/C
Assay: NCI In Vivo Anticancer Drug Screen. Data for tumor model L1210 Leukemia (intraperitoneal) in B6D2F1 (BDF1) mice
Conditions: endpoint: mean survival time, higher = longer survival
Outline: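 Ratio derived from survival: compound-dosed mice over vehicle-dosed mice, all bearing a transplantable tumor.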

Measured: T/C

O=C(Nc1cccc(O)c1)C(O)C(O)C(O)C(O)CO (stereo not given)
inactive: dose: 100.0 mg/kg/injection, schedule: Q04DX003 (ip), vehicle: saline 97 % of control | dose: 200.0 mg/kg/injection, schedule: Q04DX003 (ip), vehicle: saline 94 % of control | dose: 400.0 mg/kg/injection, schedule: Q04DX003 (ip), vehicle: saline 91 % of control

Cc1ccc(SCCN=C(N)CSS(=O)(=O)O)cc1
inactive: dose: 12.5 mg/kg/injection, schedule: Q01DX009 (ip), vehicle: Klucel (hydroxypropylcellulose) (HPC) 94 % of control | dose: 25.0 mg/kg/injection, schedule: Q01DX009 (ip), vehicle: Klucel (hydroxypropylcellulose) (HPC) 107 % of control | dose: 100.0 mg/kg/injection, schedule: Q04DX002 (ip), vehicle: Klucel (hydroxypropylcellulose) (HPC) 92 % of control | dose: 200.0 mg/kg/injection, schedule: Q04DX002 (ip), vehicle: Klucel (hydroxypropylcellulose) (HPC) 101 % of control | dose: 400.0 mg/kg/injection, schedule: Q04DX002 (ip), vehicle: Klucel (hydroxypropylcellulose) (HPC) 92 % of control

CCCCCCCCCCCC[P+](CCCC)(CCCC)CCCC
inactive: dose: 0.55 mg/kg/injection, schedule: Q01DX Z (ip), vehicle: saline 110 % of control | dose: 1.16 mg/kg/injection, schedule: Q01DX Z (ip), vehicle: saline 100 % of control | dose: 1.25 mg/kg/injection, schedule: Q01DX Z (ip), vehicle: saline 110 % of control

COC(=O)c1ccc(C(=O)O)[n+]([O-])c1
inactive: dose: 100.0 mg/kg/injection, schedule: Q01DX009 (ip), vehicle: Klucel (hydroxypropylcellulose) (HPC) 93 % of control | dose: 100.0 mg/kg/injection, schedule: Q04DX003 (ip), vehicle: Klucel (hydroxypropylcellulose) (HPC) 97 % of control | dose: 200.0 mg/kg/injection, schedule: Q01DX009 (ip), vehicle: Klucel (hydroxypropylcellulose) (HPC) 88 % of control | dose: 200.0 mg/kg/injection, schedule: Q04DX003 (ip), vehicle: Klucel (hydroxypropylcellulose) (HPC) 103 % of control | dose: 400.0 mg/kg/injection, schedule: Q04DX003 (ip), vehicle: Klucel (hydroxypropylcellulose) (HPC) 97 % of control

N#Cc1nccc2ccc(OCc3ccc(Br)cc3)cc12
inactive: dose: 100.0 mg/kg/injection, schedule: Q04DX003 (ip), vehicle: saline with Tween-80 88 % of control | dose: 200.0 mg/kg/injection, schedule: Q04DX003 (ip), vehicle: saline with Tween-80 86 % of control | dose: 400.0 mg/kg/injection, schedule: Q04DX003 (ip), vehicle: saline with Tween-80 89 % of control

[Co]#[Sb]
inactive: dose: 75.0 mg/kg/injection, schedule: Q04DX003 (sc), vehicle: olive oil, sesame oil, peanut oil 96 % of control | dose: 150.0 mg/kg/injection, schedule: Q04DX003 (sc), vehicle: olive oil, sesame oil, peanut oil 95 % of control | dose: 300.0 mg/kg/injection, schedule: Q04DX003 (sc), vehicle: olive oil, sesame oil, peanut oil 105 % of control

O=c1[nH]c(Cc2ccccc2)c([N+](=O)[O-])c(=O)[nH]1
inactive: dose: 50.0 mg/kg/injection, schedule: Q01DX001 (ip), vehicle: Klucel (hydroxypropylcellulose) (HPC) 94 % of control | dose: 100.0 mg/kg/injection, schedule: Q01DX001 (ip), vehicle: Klucel (hydroxypropylcellulose) (HPC) 103 % of control | dose: 200.0 mg/kg/injection, schedule: Q01DX001 (ip), vehicle: Klucel (hydroxypropylcellulose) (HPC) 97 % of control
